Where “and” joins values, the source holds several entries; their conditions need not be identical. Equal entries are not always repeated. Entries after “also recorded” stand apart in the source; their conditions may differ.
Key:
Cyclic voltammetry = type: physicochemical; conditions: for ΔE, separation between anodic and cathodic peaks: ligand redox feature
Description: All ^1H and ^13C NMR spectra were recorded on a 400 MHz AV Bruker NMR spectrometer; all reported resonances were referenced to internal standards. Electron paramagnetic resonance (EPR) spectra were collected using a Bruker EMX-6/1 X-band EPR spectrometer operated in the perpendicular mode. The acquired data were analyzed with the program EasySpin. Each sample was run as a frozen solution in a quartz tube. High-resolution mass spectrometry (HR-MS) data were obtained at the Mass Spectrometer Center at Auburn University on a Bruker microflex LT MALDI-TOF mass spectrometer via direct probe analysis operated in the positive ion mode. IR data were collected using a Shimadzu IR Prestige-21 FT-IR spectrophotometer. A Johnson Matthey magnetic susceptibility balance (model MK I#7967) was used to measure the magnetic properties of the Mn(II) complex with H2qtp1; the reported eff value was the average of those measured for two independently prepared solid samples. Atlantic Microlabs (Norcross, Ga.) performed the elemental analyses (C, H, N). All samples submitted for elemental analysis were crystallized and dried under vacuum prior to their shipment. All cyclic voltammetry was performed under N2 at 294 K using an Epsilon electrochemistry workstation (Bioanalytical System, Inc.), a gold working electrode, a platinum wire auxiliary electrode, and a Ag/AgCl reference electrode.
Complex 3 was studied by cyclic voltammetry (CV) in water containing 50 mM phosphate to buffer the solution to pH 7.2. A redox feature with E1/2 of 60 mV vs. Ag/AgCl (295 mV vs. NHE) is observed (FIG. 22).
Similar redox processes were found for both 1 and a Zn(II)-H2qtp1 complex, leading us to assign the 60 mV redox event to the oxidation of the ligand, rather than the manganese. The separation between the anodic and cathodic peaks (ΔE) for this feature is 230 mV; this is much less reversible than its analog in the CV of 1 (75 mV). A second and entirely irreversible redox event at 725 mV (960 mV vs NHE) is tentatively assigned to the oxidation of Mn(II) to Mn(III). For this analysis, the scan rate was 100 mV/s. For the quasi-reversible feature: E1/2=57 mV vs. Ag/AgCl, ΔE=232 mV. An irreversible feature with Epc=725 mV is also observed.

[1] = Superoxide scavenging, hypoxanthine-xanthine oxidase / lucigenin luminescence; type: biochemical; conditions: 50 mM Tris-HCl pH 8.0
Description: Superoxide was produced in situ from a reaction between xanthine and xanthine oxidase. The subsequent reaction of the O2^− with lucigenin provided a spectroscopic signal that can be used to provide a qualitative measure of an anti-oxidant's ability to degrade O2^−. The copper/zinc superoxide dismutase isolated from bovine erythrocytes (0.001-100 U/ml, Calbiochem) was used as a positive control. The assay was carried out in a total volume of 1 mL containing 50 mM tris (pH 8.0), hypoxanthine (50 μM), xanthine oxidase (0.005 U/ml, Calbiochem) and dark adapted lucigenin (5 μM) in the presence of a complex (0.1 nM-10 μM) or their vehicle. Reactions were carried out at room temperature and were initiated by the addition of xanthine oxidase to the hypoxanthine-containing solution. Luminescence was measured using a TD-20/20 (Turner Designs) luminometer and expressed as relative light units (RLU). Luminescence was measure for four 10 s integrations after an initial delay of 3 s. The four RLU values were averaged, and each concentration was expressed as a percent of that produced in the presence of vehicle. Each assay data point was performed in duplicate and assays were repeated three times.
Superoxide was generated using a hypoxanthine-xanthine oxidase reaction and detected using the chemiluminescent probe lucigenin. Reactions were carried out in 50 mM Tris-HCl (pH 8.0) containing either 1, 2, or Cu/Zn SOD from bovine erythrocytes (insert). Data for the various concentrations of 1, 2, and SOD are expressed as a percentage of luminescence in the presence of vehicle.
The ability of 3 to degrade superoxide was tested using a standard technique that uses the reaction between xanthine oxidase and xanthine to generate O2^− and a subsequent reaction with the chemiluminescent probe lucigenin to detect it. Reactions were carried out in 50 mM Tris-HCl (pH 8.0). Data for the various concentrations of Mn(II) complex are expressed as a percentage of luminescence in the presence of vehicle.

[2] = Stability in aerobic solution / to pH; type: physicochemical
Description: (§1) Over this time, collected UV/vis spectra (FIGS. 2 & 3) display changes in the region between 200 nm and 300 nm which are consistent with the oxidation of the quinol to a para-quinone. Past 24 h, the solution begins to turn brown, consistent with oxidation of the manganese to Mn(III) and/or Mn(IV). For the spectrophotometric analysis, the Fe(ClO4)2 solution was added to a MeCN solution containing 0.10 mM [Mn(Hptp1)(MeCN)]^2+; the mixture was scanned at 0 min (dashed red), 30 min (dashed pink), and 60 min (dashed blue). […] At 15 h, approximately 11% of the Mn(II) has been displaced by Fe(II) as indicated by data in FIG. 3.
(§2) The stability of 3 to air and adventitious metal ions was assessed primarily by UV/vis spectroscopy. […] Complex 3, however, is susceptible to metal exchange. When equimolar amounts of 3 and Fe(ClO4)2 are mixed in MeCN, 80% of the Mn(II) is replaced by Fe(II) by 3 h.

[3] = T1-weighted relaxivity (r1) on 3 T clinical MRI scanner; type: physicochemical; conditions: 50 mM HEPES pH 7.00, 3 T
[4] = Metal exchange with Fe(ClO4)2 followed by UV/vis; type: physicochemical; conditions: 0.10 mM complex + 0.10 mM Fe(ClO4)2, MeCN
Description: as §1, §2

[5] = Potentiometric pH titrations, Hyperquad model
Description: The speciation in water was more rigorously probed with potentiometric pH titrations. […] The quinolic protons likely deprotonate at higher pH values (pKa˜10), but we were unable to obtain the high pH data necessary to confirm this.
The data were fit to a model containing the protonated forms of the free ligand and four Mn(II) complexes with the ligand in various protonation states: [Mn(H2qtp2)], [Mn(H3qtp2)]^+, [Mn(H4qtp2)]^2+, and [Mn(H4qtp2)]^3+ (Scheme 4).

| Compound | ΔE, separation between anodic and cathodic peaks (Cyclic voltammetry) | E1/2 vs. NHE (Cyclic voltammetry; phosphate buffer pH 7.2, ligand feature) | superoxide scavenging [1] | stability in aerobic solution [2] | r1 after addition of KO2 ([3]; 2 mM KO2) [M⁻¹ s⁻¹] | r1 after addition of NaClO ([3]; 10 mM NaClO) [mM⁻¹ s⁻¹] | r1 of fully oxidized sensor ([3]; oxidized by DDQ) [mM⁻¹ s⁻¹] | displacement of Mn(II) by Fe(II) ([4]; 0-60 min) | Mn(II) displaced by Fe(II) ([4]; 15 h) | percentage of free Mn(II) ([5]; pH 7.0) [%] | manganese bound by some form of the ligand ([5]; pH 7.4) | E1/2 vs. Ag/AgCl (Cyclic voltammetry; phosphate buffer pH 7.2, quasi-reversible ligand feature) | irreversible redox event (Epc) vs. Ag/AgCl (Cyclic voltammetry; tentatively Mn(II) to Mn(III)) [mV] | irreversible redox event vs NHE (Cyclic voltammetry; tentatively Mn(II) to Mn(III)) [mV] | error introduced by air oxidation ([2]; aerated MeOH, 4 h) [%] | decrease in intensity of 302 nm quinol feature ([2]; aerated MeOH, 12 h) |
| --- | --- | --- | --- | --- | --- | --- | --- | --- | --- | --- | --- | --- | --- | --- | --- | --- |
| CC#N.O=S(=O)([O-])C(F)(F)F.O=S(=O)([O-])C(F)(F)F.[Mn+2].[O-]c1ccc(O)cc1CN(CCN(Cc1ccccn1)Cc1ccccn1)Cc1ccccn1 [Complex 1, Acetonitrilo(N-(2,5-dihydroxy-benzyl)-N,N′,N′-tris(2-pyridinylmethyl)-1,2-ethanediamine)manganese(II) triflate] | 75 mV | about 300 mV | successfully intercepts O2^− | sufficiently stable in aerobic water solutions; also recorded: slightly sensitive towards oxygen | 5520 | 4.82 | 5.56 |  |  |  |  |  |  |  |  |  |
| CC#N.Cc1ccc(O)c(CN(CCN(Cc2ccccn2)Cc2ccccn2)Cc2ccccn2)c1.[Mn+2].[O-][Cl+3]([O-])([O-])[O-].[O-][Cl+3]([O-])([O-])[O-] [Complex 2, reference compound] |  |  | successfully intercepts O2^− |  |  |  |  | negligible displacement | approximately 11% |  |  |  |  |  |  |  |
| cis-Dibromo(N,N′-bis(2,5-dihydroxybenzyl)-N,N′-bis(2-pyridinylmethyl)-1,2-ethanediamine)manganese(II) [Complex 3] | 230 mV and 232 mV |  | successfully intercepts O2^− | moderately stable in aerobic aqueous solutions above pH 7.0 |  |  |  |  |  | 1.4 | Over 99% | 60 mV and 57 mV | 725 | 960 | < 5 | about 10% |
